We go through one compound from US20160368895A1, “PULMONARY HYPERTENSION TREATING AGENT” (THE UNIVERSITY OF TOKYO, priority 2013, published 2016).

The target in assay [1] is T1, human PGI2 receptors (hIP) (Homo sapiens, UniProt P43119).
T1 construct: expressed in transfected cells; host or cells: CHO-K1
The assay can be described thus: Method D: effect on cAMP production in human aortic smooth muscle cells (left shift value). The note with it: concentration of test compound that halves the EC50 of epoprostenol. The assay is classed as cell-based. The method, then:
The effect of a test compound on the cAMP production curve with respect to the IP agonist epoprostenol (manufactured by GlaxoSmithKline) was investigated using human aortic smooth muscle cells known to express human PGI2 receptors (hIP).
An amount of 5 μL of a mixture (diluted in F-12 culture medium (manufactured by GIBCO) including 0.1% BSA) of epoprostenol dissolved in DMSO and a test compound dissolved in DMSO was dispensed in advance into a 384-well black microplate, and 5 μL of CHO/hIP cells suspended at a concentration of 1.4×10^6 cells/mL in F-12 culture medium including 0.1% BSA were added to the microplate. After 40 minutes of incubation at room temperature, the amount of cAMP was measured using a cAMP assay kit (cAMP HiRange, manufactured by Cisbio Bioassays). Specifically, 5 μL of a cAMP-d2 solution (including a cell lysate) from the kit were added and the reaction was stopped, then 5 μL of a fluorescence-labeled cAMP antibody solution from the kit were added and incubation was performed for 1 hour at room temperature, after which fluorescence was measured using a PHERAstar plate reader (manufactured by BMG) in HTRF (registered trademark) mode. The amount of cAMP in each well was calculated from a cAMP calibration curve obtained using a standard sample, and an epoprostenol-cAMP production curve for the presence of various concentrations of the test compound was created. […]

Assay [2] has as its system thoracic aorta of the marmot. The assay is described as follows: Magnus test using a blood vessel removed from a marmot. The note with it: 20 μM of test compound; FIG. 2. The method, then:
An incision was made in the thoracic region of a marmot (slc/Harley, male, 11-12 weeks of age) under anesthesia, and the thoracic aorta of the marmot was removed. The vascular endothelium was removed using a thread, after which the blood vessel was cut into a round slice having a width of approximately 2 mm and fixed to a fixing rod using thread or a stainless steel hook, and placed in a 10 mL Magnus tube maintained at a temperature of 37° C. and saturated with a 95% O2/5% CO2 gas mixture, and a tension of 1 g was placed on the blood vessel. When the tension on the specimen became stable, phenylephrine (phenylephrine hydrochloride, PHE, manufactured by Sigma-Aldrich Japan, final concentration: 3×10^−6 mol/L) was added thereto to cause the specimen to contract, the test compound or a solvent was added when the contraction became stable, the IP agonist beraprost (beraprost sodium, manufactured by Cayman Chemical) was cumulatively added after 15 minutes to give a final concentration of 1 nM to 1000 nM, and the change in relaxation response was recorded.
The contraction inhibition rate for each set of data was calculated using a contraction rate of 100% as the control (DMSO addition).

Assay [3] has as its target T1, human PGI2 receptors (hIP). The assay is described as follows: Method C: effect on epoprostenol-cAMP production curve in CHO/hIP cells (left shift value). The format is cell-based. The note with it: Table 4, concentration of test compound that halves the EC50 of epoprostenol.

T1 sequence (P43119 whole entry): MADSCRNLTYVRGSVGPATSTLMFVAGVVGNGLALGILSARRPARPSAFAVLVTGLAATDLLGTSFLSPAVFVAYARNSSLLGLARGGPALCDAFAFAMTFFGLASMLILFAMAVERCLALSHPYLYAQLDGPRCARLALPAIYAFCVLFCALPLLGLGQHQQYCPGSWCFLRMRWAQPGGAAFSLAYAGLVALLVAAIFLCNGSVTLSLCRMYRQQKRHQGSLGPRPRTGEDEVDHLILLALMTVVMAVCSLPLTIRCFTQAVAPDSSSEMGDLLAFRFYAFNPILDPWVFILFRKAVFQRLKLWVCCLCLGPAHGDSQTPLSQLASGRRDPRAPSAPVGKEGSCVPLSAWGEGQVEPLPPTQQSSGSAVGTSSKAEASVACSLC

For `COc1ccccc1C(c1nnnn1C(C)(C)C)N1CCc2ccccc2C1` (stereo not drawn) [Example 51], the values for the left shift value in assay [1] and in assay [3] were 3.9 µM and 4.3 µM, respectively. The “enhancement of vasoconstriction inhibition (vasorelaxation) with respect to beraprost” value in assay [2] is reported as “an enhancement of vasoconstriction inhibition (vasorelaxation) with respect to the IP agonist beraprost was recognized”.
